Measured values as given in patent US9580398B2, “Compounds, compositions, and methods for modulating ferroptosis and treating excitotoxic disorders” (The Trustees of Columbia University in the City of New York, priority 2012, dated 2017).

Experiments:
[1] = system: erastin (10 μM)-treated HT-1080 cells; experiment: Inhibition of death in erastin (10 μM)-treated HT-1080 cells, viability by Alamar Blue; type: cell-based, human; conditions: inhibition of death in erastin (10 μM)-treated HT-1080 cells; Alamar Blue; from dose response curves
Description: Cell viability was typically assessed in 384-well format by Alamar Blue (Invitrogen) fluorescence (ex/em 530/590) measured on a Victor3 platereader (Perkin Elmer, Waltham, Mass.). In some experiments, Trypan Blue dye exclusion counting was performed using an automated cell counter (ViCell, Beckman-Coulter Inc., Brea, Calif.). Cell viability in test conditions is reported as a percentage relative to the negative control treatment.
Flow cytometry data was analyzed using FloJo (9.3.2, Tree Star, Inc., Ashland, Oreg.). Chemical structures were drawn using ChemDraw Ultra (Cambridgesoft, Cambridge, Mass.). Computational determination of log P (Slog P function) was performed using MOE 2010.10 (Chemical Computing Group, Montreal, […].). Viability data was analyzed using Excel (Microsoft Corp., […].). Summary data and heatmaps were generated using R. Dose-response curves were computed by 4-parameter logistic regression in Prism 5.0c (GraphPad Software). Images were manipulated using Photoshop CS4 and Illustrator CS4 (Adobe, San Jose, Calif.).
The ability of various compounds disclosed herein to inhibit death in erastin (10 μM)-treated HT-1080 cells were tested. Cell viability was assessed by Alamar Blue. EC50 values (nM) were computed from dose response curves.

[2] = 2,2-diphenyl-1-picrylhydrazyl (DPPH) assay, cell-free antioxidant potential; conditions: test compound 0.05 mM, absorbance at 517 nm
Description: The stable radical DPPH (Blois, 1958) was dissolved in methanol to a final concentration of 0.05 mM. 1 mL of DPPH solution was added to 2 μL of each test compound dissolved in DMSO. The final concentration of each test compound was 0.05 mM. Samples were inverted several times and allowed to incubate at room temperature for 10 minutes. Samples were then aliquoted to white 96-well solid-bottom dishes (Corning) and absorbance at 517 nm was recorded using a TECAN M200 plate reader. All values were normalized to background (methanol only). The experiment was repeated twice. Results within each trial normalized to DMSO (=1.0), then averaged across trials.

[3] = system: ERK phosphorylation in HT-1080 cells; experiment: Western blotting of ERK phosphorylation; type: cell-based, human
Description: Cells were trypsinized, pelleted, and washed once in PBS. Cells were lysed for 20 minutes in buffer containing: 50 mM HEPES pH 7.4, 40 mM NaCl, 2 mM EDTA, 0.5% Triton X-100, 1.5 mM sodium orthovanadate, 50 mM NaF, 10 mM sodium pyrophosphate, 10 mM sodium β-glycerophosphate, and protease inhibitor tablet (Roche, Nutley, N.J.). Unlysed cells and debris were pelleted for 10 minutes at 10,000 rpm in a benchtop microcentrifuge at 4° C., and the supernatant was removed and mixed with 5×SDS loading buffer. Samples were separated by SDS-polyacrylamide gel electrophoresis. Western transfer was performed using the iBlot system (Invitrogen). Membrane was blocked for 1 hour in Licor Odyssey Blocking Buffer (LI-COR) and incubated in primary antibody overnight at 4° C. Following three 5-minute washes in Tris-buffered saline (pH 7.4) with 1% Tween-20 (TBS-T), membrane was incubated with secondary antibodies for 45 minutes in the dark. The membrane was washed again in TBST for three 5-minute washes with protection from light and scanned using the Odyssey Imaging System (LI-COR). Antibodies used were as follows: rabbit anti-phospho p42/44 MAPK (Cell Signaling Technology, #9101) and rabbit anti-p42/44 MAPK (Cell Signaling Technology, #9102). The secondary antibody was IR dye 800CW goat anti-rabbit IgG (LI-COR).

HT-1080 cells = experiment: Modulatory profile of lethal small molecules (effect of Fer-1 on lethality of various compounds); type: cell-based, human; conditions: resynthesized Fer-1 0.5 μM
Description: The modulatory effect (Me) for drug-drug interactions was computed as follows. First, plate-based background correction was performed using Alamar Blue values from empty (cell-free) wells included on each plate. Next, within each experiment, 100% viability is determined as the average Alamar Blue score for cells treated with modulator=DMSO and lethal=DMSO, and all Alamar Blue values were scaled from 0 to 1 with the DMSO×DMSO condition=1. The individual effects of each modulator and lethal (e.g. in the presence of DMSO) at all tested doses were then ascertained. […] Next, BExp was compared to the actual observed viability. For each informative drug-drug interaction (i.e. modulator=“DFO”, modulator concentration=100 μM, lethal=Erastin) the modulatory effect (Me) was equivalent to the maximum observed deviation, positive or negative, from BExp. By default, Me in DMSO-treated cells is equal to 0. This formula was empirically determined to provide a useful measure of modulation that is robust to differences in the shapes of individual dose-response curves for different inhibitors and lethal molecules. Me values for each inhibitor-lethal drug combination were hierarchically clustered and plotted as a heatmap using the heatmaps.2 function of the gplots library in R. […]

CCOC(=O)c1ccc(NC2CCCCC2)c(N)c1 [Fer-1, ferrostatin-1]
EC50 [1]: 95 nM
intrinsic antioxidant capability (DPPH) [2]: readily oxidized the stable radical 2,2-diphenyl-1-picrylhydrazyl (DPPH)
ERK phosphorylation [3]: did not inhibit ERK phosphorylation
specificity of death inhibition against various lethal compounds (HT-1080 cells): specifically inhibited RSL-induced death, but not cell death induced by other oxidative lethal compounds and apoptosis-inducing agents
